# Measured values published in patent US9133148B2, “Carbamate compounds and of making and using same” (Abide Therapeutics, Inc., priority 2012, dated 2015).
# Tests used:
# [1] = target: ABHD6 (Mus musculus (Mouse), UniProt Q8R2Y0); assay: In vitro competitive activity-based protein profiling (FP-Rh), mouse ABHD6; assay type: biochemical; settings: mouse brain membrane proteome
# Method: (§1) In Vitro Competitive Activity-Based Protein Profiling.
# (§2) Proteomes (mouse brain membrane fraction or cell lysates) ([…], 1.0 mg/mL total protein concentration) were preincubated with varying concentrations of inhibitors at 37° C. After 30 min, FP-Rh (1.0 μL, 50 μM in DMSO) was added and the mixture was incubated for another 30 min at 37° C. Reactions were quenched with SDS loading buffer (50 μL—4×) and run on SDS-PAGE.
# [2] = target: MAGL (Mus musculus (Mouse), UniProt O35678); assay: In vitro competitive activity-based protein profiling (FP-Rh), mouse MAGL; assay type: biochemical; settings: mouse brain membrane proteome
# Method: as §1, §2
# [3] = target: FAAH (Mus musculus (Mouse), UniProt O08914); assay: In vitro competitive activity-based protein profiling (FP-Rh), mouse FAAH; assay type: biochemical; settings: mouse brain membrane proteome
# Method: as §1, §2
# [4] = target: Mouse brain MAGL (Mus musculus (Mouse), UniProt O35678); assay: Mouse brain proteomes from inhibitor treated mice (oral gavage, ABPP of brain MAGL); assay type: in vivo; settings: for Mouse brain MAGL (% inhibition at 20 mg/kg, p.o.) / Mouse brain MAGL (% inhibition at 5 mg/kg, p.o.): 4 h following administration
# Method: Preparation of Mouse Brain Proteomes from Inhibitor Treated Mice.
# Inhibitors were administered to wild-type C57Bl/6J by oral gavage in a vehicle of polyethylene glycol.
# [5] = target: Human MAGL (Homo sapiens (Human), UniProt Q99685); assay: Competitive ABPP with recombinant human MAGL expressed in HEK293T cells; assay type: biochemical; settings: hMAGL in HEK293T cell lysates
# Method: as §2
# Recombinant Expression of Human MAGL in HEK293T Cells.
# Cell lysates were diluted with mock proteomes for use in competitive ABPP experiments.
# Chain of ABHD6 (Q8R2Y0 whole entry): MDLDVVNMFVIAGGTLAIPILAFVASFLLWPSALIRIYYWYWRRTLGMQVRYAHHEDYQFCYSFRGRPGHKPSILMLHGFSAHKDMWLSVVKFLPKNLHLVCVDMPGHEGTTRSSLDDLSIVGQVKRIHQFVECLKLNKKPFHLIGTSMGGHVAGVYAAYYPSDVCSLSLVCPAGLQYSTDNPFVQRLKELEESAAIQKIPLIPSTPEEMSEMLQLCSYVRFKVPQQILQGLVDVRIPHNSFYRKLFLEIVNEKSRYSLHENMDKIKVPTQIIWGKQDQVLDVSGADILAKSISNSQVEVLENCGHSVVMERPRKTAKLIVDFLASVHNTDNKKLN
# Chain of Mouse brain MAGL (O35678 whole entry): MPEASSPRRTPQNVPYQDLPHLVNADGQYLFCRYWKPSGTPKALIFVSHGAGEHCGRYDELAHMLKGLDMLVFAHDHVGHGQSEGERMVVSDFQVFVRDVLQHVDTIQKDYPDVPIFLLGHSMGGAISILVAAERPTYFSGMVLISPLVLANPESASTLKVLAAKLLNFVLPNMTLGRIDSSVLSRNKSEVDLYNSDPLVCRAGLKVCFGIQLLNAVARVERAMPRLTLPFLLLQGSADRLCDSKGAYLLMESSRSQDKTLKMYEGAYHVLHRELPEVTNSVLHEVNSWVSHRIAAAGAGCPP
# Chain of MAGL (O35678 whole entry): as above
# Chain of Human MAGL (Q99685 whole entry): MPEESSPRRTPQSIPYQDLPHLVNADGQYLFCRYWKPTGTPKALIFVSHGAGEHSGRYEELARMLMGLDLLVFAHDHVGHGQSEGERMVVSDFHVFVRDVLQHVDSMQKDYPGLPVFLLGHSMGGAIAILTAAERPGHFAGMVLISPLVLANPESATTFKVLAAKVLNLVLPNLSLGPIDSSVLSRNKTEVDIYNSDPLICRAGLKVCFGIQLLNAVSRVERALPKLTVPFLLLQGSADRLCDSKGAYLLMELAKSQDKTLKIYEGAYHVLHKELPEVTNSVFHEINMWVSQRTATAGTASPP
# Chain of FAAH (O08914 whole entry): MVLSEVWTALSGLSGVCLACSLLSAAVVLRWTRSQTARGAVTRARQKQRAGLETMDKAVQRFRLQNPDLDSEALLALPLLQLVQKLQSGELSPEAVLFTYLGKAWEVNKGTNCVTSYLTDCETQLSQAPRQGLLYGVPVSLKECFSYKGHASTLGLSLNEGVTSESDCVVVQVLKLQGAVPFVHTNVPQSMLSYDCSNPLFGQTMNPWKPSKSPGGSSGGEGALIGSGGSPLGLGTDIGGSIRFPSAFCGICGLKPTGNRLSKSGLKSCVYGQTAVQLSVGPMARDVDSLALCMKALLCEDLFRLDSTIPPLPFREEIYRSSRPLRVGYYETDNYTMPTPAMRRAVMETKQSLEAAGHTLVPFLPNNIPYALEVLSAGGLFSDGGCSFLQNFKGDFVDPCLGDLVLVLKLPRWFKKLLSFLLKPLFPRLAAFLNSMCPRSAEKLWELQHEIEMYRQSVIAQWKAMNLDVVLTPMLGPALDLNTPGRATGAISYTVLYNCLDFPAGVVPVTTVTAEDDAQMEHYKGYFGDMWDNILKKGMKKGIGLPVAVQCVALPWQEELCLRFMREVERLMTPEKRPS
SMILES,IC50 ([1]; competitive ABPP) [nM],IC50 ([2]; competitive ABPP) [nM],IC50 ([3]; competitive ABPP) [nM],"Mouse brain MAGL (% inhibition at 20 mg/kg, p.o.) [4] [%]",IC50 [5] [nM],IC50 ([1]; competitive ABPP (Table 7)) [nM],IC50 ([2]; competitive ABPP (Table 7)) [nM],IC50 ([3]; competitive ABPP (Table 7)) [nM],ED50 ([4]; po) [mg/kg],"Mouse brain MAGL (% inhibition at 5 mg/kg, p.o.) [4] [%]"
"COC(c1ccc2c(c1)OCO2)(c1ccc2c(c1)OCO2)C1CCN(C(=O)OC(C(F)(F)F)C(F)(F)F)CC1 [Example 1b, 1,1,1,3,3,3-hexafluoropropan-2-yl 4-(bis(benzo[d][1,3]dioxol-5-yl)(methoxy)methyl)piperidine-1-carboxylate]",100 to 1000,< 100,> 10000,13,–,–,–,–,–,–
"CN(Cc1ccc2c(c1)OCO2)C(=O)OC(C(F)(F)F)C(F)(F)F [Example 3i, 1,1,1,3,3,3-hexafluoropropan-2-yl(benzo[d][1,3]dioxol-5-ylmethyl)-(methyl)carbamate]",> 1000,100 to 1000,> 10000,–,100 to 1000,–,–,–,–,–
"Cc1nc(-c2cccc(CN(C)C(=O)OC(C(F)(F)F)C(F)(F)F)c2)no1 [Example 3j, 1,1,1,3,3,3-hexafluoropropan-2-yl methyl(3-(5-methyl-1,2,4-oxadiazol-3-yl)benzyl)carbamate]",100 to 1000,100 to 1000,> 10000,–,< 100,–,–,–,–,–
"O=C(OC(C(F)(F)F)C(F)(F)F)N1CCN(S(=O)(=O)c2ccccc2)CC1 [Example 4a, 1,1,1,3,3,3-hexafluoropropan-2-yl 4-(phenylsulfonyl)piperazine-1-carboxylate]",100 to 1000,100 to 1000,> 10000,–,100 to 1000,–,–,–,–,–
"Cc1ccc(S(=O)(=O)N2CCN(C(=O)OC(C(F)(F)F)C(F)(F)F)CC2)cc1 [Example 4b, 1,1,1,3,3,3-hexafluoropropan-2-yl 4-tosylpiperazine-1-carboxylate]",100 to 1000,< 100,> 10000,–,< 100,–,–,–,–,–
"N#Cc1ccc(S(=O)(=O)N2CCN(C(=O)OC(C(F)(F)F)C(F)(F)F)CC2)cc1 [Example 4d, 1,1,1,3,3,3-hexafluoropropan-2-yl 4-((4-cyanophenyl)sulfonyl)-piperazine-1-carboxylate]",> 1000,100 to 1000,> 10000,–,100 to 1000,–,–,–,–,–
"CC(=O)Nc1ccc(S(=O)(=O)N2CCN(C(=O)OC(C(F)(F)F)C(F)(F)F)CC2)cc1 [Example 4e, 1,1,1,3,3,3-hexafluoropropan-2-yl 4-((4-acetamidophenyl)sulfonyl)-piperazine-1-carboxylate]",> 1000,> 1000,> 10000,–,> 1000,–,–,–,–,–
"CC(C)c1cc(C(C)C)c(S(=O)(=O)N2CCN(C(=O)OC(C(F)(F)F)C(F)(F)F)CC2)c(C(C)C)c1 [Example 4f, 1,1,1,3,3,3-hexafluoropropan-2-yl 4-((2,4,6-triisopropylphenyl)-sulfonyl)piperazine-1-carboxylate]",> 1000,> 1000,> 10000,–,> 1000,–,–,–,–,–
"Cc1ccccc1S(=O)(=O)N1CCN(C(=O)OC(C(F)(F)F)C(F)(F)F)CC1 [Example 4g, 1,1,1,3,3,3-hexafluoropropan-2-yl 4-(o-tolylsulfonyl)piperazine-1-carboxylate]",100 to 1000,100 to 1000,> 10000,–,100 to 1000,–,–,–,–,–
"O=C(OC(C(F)(F)F)C(F)(F)F)N1CCN(S(=O)(=O)c2ccc3ccccc3c2)CC1 [Example 4h, 1,1,1,3,3,3-hexafluoropropan-2-yl 4-(naphthalen-2-ylsulfonyl)-piperazine-1-carboxylate]",> 1000,< 100,> 10000,–,> 1000,–,–,–,–,–
"O=C(OC(C(F)(F)F)C(F)(F)F)N1CCN(S(=O)(=O)c2cccc(C(F)(F)F)c2)CC1 [Example 4i, 1,1,1,3,3,3-hexafluoropropan-2-yl 4-((3-(trifluoromethyl)phenyl)-sulfonyl)piperazine-1-carboxylate]",> 1000,100 to 1000,> 10000,–,100 to 1000,–,–,–,–,–
"CNC(=O)C(OC(=O)N1CCN(C(c2ccc(Cl)cc2)c2ccc(Cl)cc2)CC1)C(F)(F)F (centres unmarked) [Example 6j, 1,1,1-trifluoro-3-(methylamino)-3-oxopropan-2-yl 4-(bis(4-chlorophenyl)methyl)piperazine-1-carboxylate]",< 100,100 to 1000,> 10000,>95,–,–,–,–,–,–
"CC(=O)NC1CCN(c2cc(Cl)ccc2CN2CCN(C(=O)OC(C(F)(F)F)C(F)(F)F)CC2)C1 (centres unmarked) [Example 9af, 1,1,1,3,3,3-hexafluoropropan-2-yl 4-(2-(3-acetamidopyrrolidin-1-yl)-4-chlorobenzyl)piperazine-1-carboxylate]",–,–,–,–,–,> 1000,100 to 1000,> 10000,< 4,–
"O=C(OC(C(F)(F)F)C(F)(F)F)N1CCN(Cc2cccc(Cl)c2N2CCCC2)CC1 [Example 9ar, 1,1,1,3,3,3-hexafluoropropan-2-yl 4-(3-chloro-2-(pyrrolidin-1-yl)benzyl)piperazine-1-carboxylate]",–,–,–,–,–,> 1000,< 100,> 10000,–,75
"O=C(OC(C(F)(F)F)C(F)(F)F)N1CCN(Cc2ccc(Cl)cc2N2CCC3(CCOCC3)C2)CC1 [Example 9av, 1,1,1,3,3,3-hexafluoropropan-2-yl 4-(4-chloro-2-(8-oxa-2-azaspiro[4.5]decan-2-yl)benzyl)piperazine-1-carboxylate]",–,–,–,–,–,> 1000,< 100,> 10000,–,75
"O=C(OC(C(F)(F)F)C(F)(F)F)N1CCN(Cc2ccc(Cl)cc2N2CCC3(CCNC3=O)CC2)CC1 [Example 9ax, 1,1,1,3,3,3-hexafluoropropan-2-yl 4-(4-chloro-2-(1-oxo-2,8-diazaspiro[4.5]decan-8-yl)benzyl)piperazine-1-carboxylate]",–,–,–,–,–,> 1000,< 100,> 10000,–,75
"O=C(OC(C(F)(F)F)C(F)(F)F)N1CCN(Cc2ccc(Cl)cc2N2CCC2)CC1 [Example 9ay, 1,1,1,3,3,3-hexafluoropropan-2-yl 4-(2-(azetidin-1-yl)-4-chlorobenzyl)piperazine-1-carboxylate]",–,–,–,–,–,> 1000,< 100,> 10000,–,50
"O=C(OC(C(F)(F)F)C(F)(F)F)N1CCN(Cc2ccc(Cl)cc2N2Cc3cccnc3C2)CC1 [Example 9bh, 1,1,1,3,3,3-hexafluoropropan-2-yl 4-(4-chloro-2-(5H-pyrrolo[3,4-b]pyridin-6(7H)-yl)benzyl)piperazine-1-carboxylate]",–,–,–,–,–,100 to 1000,< 100,> 10000,–,25
"O=C(OC(C(F)(F)F)C(F)(F)F)N1CCN(Cc2ccc(Cl)cc2N2CCN3CCC[C@@H]3C2)CC1 [Example 9bi, (R)-1,1,1,3,3,3-hexafluoropropan-2-yl 4-(4-chloro-2-(hexahydropyrrolo[1,2-a]pyrazin-2(1H)-yl)benzyl)piperazine-1-carboxylate]",–,–,–,–,–,> 1000,< 100,> 10000,–,50
"CS(=O)(=O)N1CCN(c2cc(Cl)ccc2CN2CCN(C(=O)OC(C(F)(F)F)C(F)(F)F)CC2)CC1 [Example 9bj, 1,1,1,3,3,3-hexafluoropropan-2-yl 4-(4-chloro-2-(4-(methylsulfonyl)piperazin-1-yl)benzyl)piperazine-1-carboxylate]",–,–,–,–,–,100 to 1000,< 100,> 10000,–,75
